Test results as given in patent US7427391B2, “Formulations for use in medical and diagnostic procedures” (priority 2001, dated 2008).

Columns and labels:
Format in all cases: in vivo, human
[1] = tested on: small bowel; test: Blinded qualitative rating of bowel distension on MR images by five radiologists (Example 4); settings: six volunteers; consensus of five blinded radiologists
Text: For a qualitative assessment, MR images of all 5 examinations for each volunteer were presented as hardcopies in a randomized and blinded fashion to five radiologists. They were asked to rate the images regarding bowel distention in an ascending order for each volunteer. The qualitative assessment was done by consensus.

[2] = tested on: small bowel; test: MR (TrueFISP) measurement of small bowel loop diameters after 1500 ml oral contrast solution (Example 4); settings: for Mean small bowel diameter / Mean small bowel diameter, AV (average of all six volunteer examinations): 1500 ml orally over 45 minutes; for Mean small bowel diameter: MR TrueFISP; for Mean small bowel diameter, AV (average of all six volunteer examinations): average of six volunteers; for Small bowel distension, comparison in words: six volunteers, paired t-test, p<0.01
Protocol: Six healthy volunteers (three female and three male; age range 21-28 years) without known contraindications to MR imaging were included in this study, which was conducted in accordance with all guidelines set forth by the approving institutional review board. Presence of gastrointestinal disease, previous abdominal surgery and symptoms of gastrointestinal disorders such as post-prandiol belching, nausea or early satiety were excluded. Each volunteer was examined on five different occasions. […] The LBG and Metamucil concentrations were chosen as high as possible within the confines of an unproblematic ingestion regarding viscosity and flavor, while choice of the mannitol concentration was based on previous studies. To assure homogenization of bowel activity, all exams were performed following 8 hour fasts. Prior to each exam, 1500 ml of the respective contrast solution were orally ingested over 45 minutes at a steady, evenly distributed rate. To ensure a consistent ingestion, volunteers were asked to drink 150 ml every four to five minutes. To enhance gastric emptying, 100 mg erythromycin (Abbott Pharmaceutics, Wiesbaden, Germany) were administered intravenously directly after the ingestion of the first 150 ml of the contrast solution. […] For signal reception a large ‘flex surface coils’ was used. Prior to the data acquisition neither spasmolytic agents nor paramagnetic contrast compounds were intravenously applied. […] Other sequence parameters included a field of view 35 cm, a slice thickness of 7 mm (25 slices) and an acquisition time of 24 seconds. Matrix size was 144×256, inter section gap amounted to 1 mm and the number of excitation was one. All 30 MR examinations were of diagnostic image quality. 1500 ml of each solution was ingested within the target time of 45 minutes. Images were quantitatively analyzed independently by two radiologists, who were blinded to the type of oral contrast employed. […] For the measurements bowel loops with maximal diameter were chosen. […] Subsequent analysis was based on mean small bowel diameters and their standard deviations. The effects of the analyzed oral contrast agents concerning small bowel distension were compared by a paired t-test. For the adaptation to multiple samples, a Bonferoni-correction was used.

[3] = tested on: stomach and small bowel; test: CT-PET measurement of stomach, jejunum and ileum diameters in oncologic patients (Example 5); settings: 20 oncologic patients per agent
Protocol: CT-PET examinations of 60 oncologic patients were performed on a combined CT-PET tomograph. Three different oral contrast agents were randomly assigned to 20 patients each: barium, water, and a solution of 2.5% mannitol and 0.2% locust bean gum (LBG). To compare the bowel distension abilities of the three agents, representative diameters each of the stomach, the jejunum and the ileum were measured by two radiologists. PET images were evaluated qualitatively for areas of increased bowel FDG uptake based on a four-point scale as well as quantitatively by determination of standard uptake values (SUV). To assess the effect of the different contrast agents onto the tracer activity concentration phantom measurements were performed.
Table 3 Intestinal distension of the stomach, the jejunum, and the ileum induced by the contrast agents under investigation as well as SUV of the small intestine in the presence of the different contrast materials. Statistical significance was determined by unpaired Student's test based on 200 measurements each for the stomach, the jejunum, the ileum, and the SUV. Thus, a total of 800 measurements were performed for every contrast agent under investigation.

[4] = tested on: small bowel; test: MR imaging of small bowel after oral contrast solutions (Examples 1-3); settings: oral application, FIGS. 1-9
Protocol: Ten healthy volunteers with no history of gastrointestinal disorder underwent MR imaging following an eight hour fast. The examination was repeated on four different days using different osmotic substances in a randomized order: water, water spiked with mannitol (2.5%), Metamucil (0.7%) or locust bean gum (0.2%). Concentrations of the additives were chosen to avoid side-effects such as diarrhea.
Forty-five minutes prior to the examination, 50 mg of Erythromycin was applied intravenously to increase gastric emptying and the volunteers started ingesting the respective contrast substance. Coronal 2D measurements were performed in the prone patient position with a TRUFISP sequence (TR/TE/flip 3.2/1.6/70°) using 1.5 T scanner (Sonata, Siemens). The acquisition time amounted to 16 sec. Small bowel filling was quantified in two different ways: (1) determination of small bowel fluid by automatically measuring all pixels meeting the signal intensity of water, and (2) assessment of small bowel distension by manual measurement of 15 small bowel diameters and calculating an average value.

[5] = Incidence of diarrhea in patients given contrast agent; settings: administered alone as a contrast agent
Protocol: Further, it has been discovered that the formulations disclosed herein have the unexpected benefit of reducing incidents of diarrhea among patients. For example, when mannitol alone is administered as a contrast agent, approximately 99% of patients experience diarrhea, sometimes in severe form. As a result, the patient's health and/or hydration may be affected, and the exam may be compromised. […] It is believed that this is due to the thickening properties of the stabilizing agent. Accordingly, due to the patient not having to use the bathroom during the procedure, for example, the medical or diagnostic procedure can be performed with less patient discomfort and with less interference. Additionally, patient compliance with the medical or diagnostic procedure is increased due to decreased complications with the procedure.

[6] = Side-effect questionnaire (diarrhea, nausea) 24 hours after MR examination (Example 4)
Text: Twenty-four hours after each MR examination, volunteers were asked by a standardized questionnaire based on a three-point scale (0=no side-effects, 1=mild side-effects, 2=severe side-effects) if either diarrhea or nausea have occurred in association with the contrast ingestion.

| Compound | Qualitative assessment of small bowel distension (rating) [1] | Mean small bowel diameter ([2]; Volunteer #1) [mm] | Mean small bowel diameter ([2]; Volunteer #2) [mm] | Mean small bowel diameter ([2]; Volunteer #3) [mm] | Mean small bowel diameter ([2]; Volunteer #4) [mm] | Mean small bowel diameter ([2]; Volunteer #5) [mm] | Mean small bowel diameter ([2]; Volunteer #6) [mm] | Mean small bowel diameter, AV (average of all six volunteer examinations) [2] [mm] | Small bowel distension, comparison in words [2] | Intestinal distension of the ileum, Mean [3] | Intestinal distension of the jejunum, Mean [3] | Intestinal distension of the stomach, Mean [3] | Diagnostic performance / lumen distention, in words [4] | Patients experiencing diarrhea [5] | Diarrhea, in words ([6]; of the three evaluated substances) | Diarrhea as side effect, volunteers reporting ([6]; six volunteers, questionnaire 24 hours after MR examination) |
| --- | --- | --- | --- | --- | --- | --- | --- | --- | --- | --- | --- | --- | --- | --- | --- | --- |
| O [Water, water] | rated poorest | 13.6 | 15.0 | 12.4 | 14.6 | 12.6 | 11.8 | 13.3 | significantly less small bowel distension | 1.4 | 1.6 | 6.1 | does not achieve acceptable or diagnostic results |  |  |  |
| OC[C@@H](O)[C@@H](O)[C@H](O)[C@H](O)CO [Mannitol, mannitol] | in four volunteers mannitol was rated better | 23.7 | 22.9 | 19.2 | 19.3 | 22.9 | 19.6 | 21.3 | superior to Metamucil |  |  |  |  | approximately 99% | consistently resulted in diarrhea | 2 of 6 |
